In US10988792B2, “Methods for antimicrobial resistance determination” (bioMerieux, Inc., priority 2009, dated 2021):

Assays:
[1] = tested on: S. aureus strains ATCC 25923 (MSSA) and D14906 (MRSA); experiment: Titration of BOCILLIN-FL binding
Procedure: Samples of S. aureus strains ATCC 25923 (MSSA) and D14906 (MRSA) were grown in BacT/ALERT SA culture media at 37° C. for about 6 hours until an OD 660 nm of about 0.35 was reached. Dilutions of BOCILLIN™-FL (0.1 ml) were prepared in SA medium and placed into culture tubes. Samples of the bacterial suspension (0.9 ml) were added to the tubes and mixed. The tubes were capped and placed in a 37° C. incubator for 60 minutes. Samples (1.0 ml) were transferred to microfuge tubes containing 0.2 ml of the same oil blend used in Example 1, centrifuged for 1 minute, aspirated, and the pellet was resuspended in 0.1 ml PBS and then added to 3.0 ml PBS, pH 7.4 in an acrylic cuvette. The sample was scanned in the FluoroLog-3 system at an excitation wavelength of 490 nm and the fluorescence emission at 510 nm was recorded.

[2] = tested on: S. aureus ATCC 25923 (MSSA); experiment: BOCILLIN-FL metabolic labeling (culturing cells with BOCILLIN-FL); assay type: binding; conditions: for MSSA/MRSA Ratio: MSSA (25923)/MRSA (D14906); for BOCILLIN-FL binding, fluorescence emission at 510 nm (excitation 490 nm), raw data: MSSA (25923)
Procedure: (§1) Two experimental approaches were used to test BOCILLIN™-FL (Molecular Probes, Invitrogen) binding to S. aureus: (1) treating cells with sodium hydroxide (NaOH), neutralizing, adding BOCILLIN™-FL, then separating the cells (harsh pretreatment); and (2) culturing cells with BOCILLIN™-FL, then separating the cells (metabolic labeling).
(§2) For the second method, the two bacterial suspensions (13 ml) were mixed with BOCILLIN™-FL (175 μl of 1.0 mg/ml stock). The mixtures were aliquoted in 1.0 ml samples into microfuge tubes containing 0.2 ml of oil blend. The tubes were incubated at 37° C. for various time-points (keeping 1 set of tubes on ice for the T0 time-point). One set of tubes was removed at 30 minutes and the cells separated from free BOCILLIN™-FL by washing twice with PBS. One set of tubes was removed at 30, 52, 68, and 86 minutes and the cells separated from free BOCILLIN™-FL by centrifugation through the oil blend. The cells were recovered and resuspended in 3 ml PBS. The samples were scanned in the FluoroLog-3 system at an excitation wavelength of 490 nm and the fluorescence emission at 510 nm was recorded.

[3] = tested on: S. aureus D14906 (MRSA); experiment: as above; assay type: binding
Procedure: as §1, §2

[4] = tested on: S. aureus strains ATCC 25923 (MSSA) and D14906 (MRSA); experiment: Time course of BOCILLIN-FL binding
Procedure: Samples of S. aureus strains ATCC 25923 (MSSA) and D14906 (MRSA) were grown in BacT/ALERT SA culture media at 37° C. until exponential growth was reached (8-10 hours). The OD 660 nm of each culture was measured and both suspensions were adjusted to 0.50 with pre-warmed SA media. BOCILLIN™-FL was diluted in pre-warmed SA media, filtered through a 0.2 μm filter and kept at 37° C. Samples of the bacteria (9.0 ml) were mixed with 1.0 ml of 100 μM BOCILLIN™-FL, mixed well, and dispensed as ten 1.0 ml aliquots into microfuge tubes containing 0.2 ml of the same oil blend used in Example 1. All tubes except the T0 tube were placed at 37° C. Tubes were removed and processed at 6, 11, 16, 22, 45, 60, 75, and 91 minutes. Each tube was centrifuged for 1 minute, the supernatant was aspirated, and the pellet was resuspended in 0.1 ml PBS and then added to 3.0 ml PBS in an acrylic cuvette. The sample was scanned in the FluoroLog-3 system at an excitation wavelength of 490 nm and the fluorescence emission at 510 nm was recorded.

[5] = tested on: Twenty different strains of S. aureus (10 MRSA and 10 MSSA strains); experiment: BOCILLIN-FL binding to a panel of MRSA and MSSA strains; conditions: signal Ex490_Em510 normalized to tryptophan Ex285_Em350; 50 μM BOCILLIN-FL (0.1 ml) + 0.9 ml strain, 30 minutes at 37° C. (FIG. 4)
Procedure: Twenty different strains of S. aureus (10 MRSA and 10 MSSA strains, confirmed with cefoxitin discs and Vitek-2) were propagated. A loopful of growth (1 μL) was removed from 24-hour plates and suspended in BacT/ALERT SA culture media (8 ml in a glass screw-capped tube). The tubes were vortexed well and incubated at 36° C. for 6 hours. The OD of each suspension was measured at 660 nm and adjusted to approximately the same density (0.50-0.75 OD; sample #12166 was only 0.28). 50 μM BOCILLIN™-FL (0.1 ml) was placed into each of 20 labeled microfuge tubes. A sample of each strain (0.9 ml) was added to each tube, mixed, and incubated at 37° C. for 30 minutes. The reaction mixture was then removed and added to a second set of tubes containing 0.2 ml of an oil blend (1.000 part type DF immersion oil plus 0.875 part Drakeol 5 mineral oil). The tubes were centrifuged for 2 minutes at 10,000 rpm in an A-8-11 rotor (Eppendorf 5417R). The supernatant and most of the oil was aspirated with a vacuum device. The remaining oil was removed using a Gilson P200 tip and the pellet was resuspended in 100 μl PBS. The cells were transferred to an acrylic cuvette containing 3 ml PBS and read in the FluoroLog 3 system using the FluoroScan “Bocillin” points listed in Table 3. Additionally, Vitek AST cards were run on each of the 20 isolates (from the same 24 hour plates).

[6] = 30′ at 37° C., washed x 2 (PBS)

Cc1cc(C)n2c1C=C1C=CC(CCC(=O)Nc3ccc(OCC(=O)N[C@@H]4C(=O)N5[C@@H]4SC(C)(C)[C@@H]5C(=O)[O-])cc3)=[N+]1[B-]2(F)F.[Na+] [BOCILLIN™-FL]
Shape of the MSSA binding curve ([1]; MSSA strain, second order polynomial curve fit): biphasic | Difference in binding between the MSSA and MRSA strains ([1]; at about 0.5 μM BOCILLIN-FL): 4 fold | Difference in binding between the MSSA and MRSA strains ([1]; at about 5 μM BOCILLIN-FL): 3 fold | BOCILLIN-FL bound by the MSSA strain, more than the MRSA strain, per cell basis ([1]; depending on the BOCILLIN-FL concentration, 60 minutes at 37° C. (FIG. 3)): 2-4 fold | BOCILLIN-FL bound by the MRSA strain, less than the MSSA strain, per cell basis ([2]; BOCILLIN-FL signal normalized to the microbial tryptophan signal (FIG. 1)): 3-4 fold | MSSA/MRSA Ratio ([2]; 30′ at 37° C., separation Oil): 5.60 | MSSA/MRSA Ratio [2, 6]: 2.00 | MSSA/MRSA Ratio ([2]; 52′ at 37° C., separation Oil): 5.35 | MSSA/MRSA Ratio ([2]; 68′ at 37° C., separation Oil): 7.17 | MSSA/MRSA Ratio ([2]; 86′ at 37° C., separation Oil): 4.48 | MSSA/MRSA Ratio ([2]; T0 (ice), separation Oil): 2.36 | BOCILLIN-FL binding, fluorescence emission at 510 nm (excitation 490 nm), raw data ([2]; 30′ at 37° C., separation Oil): 1,831,790 | BOCILLIN-FL binding, fluorescence emission at 510 nm (excitation 490 nm), raw data [2, 6]: 410,830 | BOCILLIN-FL binding, fluorescence emission at 510 nm (excitation 490 nm), raw data ([2]; 52′ at 37° C., separation Oil): 1,941,930 | BOCILLIN-FL binding, fluorescence emission at 510 nm (excitation 490 nm), raw data ([2]; 68′ at 37° C., separation Oil): 2,481,450 | BOCILLIN-FL binding, fluorescence emission at 510 nm (excitation 490 nm), raw data ([2]; 86′ at 37° C., separation Oil): 2,285,980 | BOCILLIN-FL binding, fluorescence emission at 510 nm (excitation 490 nm), raw data ([2]; T0 (ice), separation Oil): 2,745,600 | BOCILLIN-FL bound by the MRSA strain, less than the MSSA strain ([2]; raw data (Table 2), metabolic labeling): 2-7 fold | BOCILLIN-FL binding, fluorescence emission at 510 nm (excitation 490 nm), raw data ([3]; 30′ at 37° C., separation Oil): 326.790 | BOCILLIN-FL binding, fluorescence emission at 510 nm (excitation 490 nm), raw data [3, 6]: 206,250 | BOCILLIN-FL binding, fluorescence emission at 510 nm (excitation 490 nm), raw data ([3]; 52′ at 37° C., separation Oil): 363,000 | BOCILLIN-FL binding, fluorescence emission at 510 nm (excitation 490 nm), raw data ([3]; 68′ at 37° C., separation Oil): 346,270 | BOCILLIN-FL binding, fluorescence emission at 510 nm (excitation 490 nm), raw data ([3]; 86′ at 37° C., separation Oil): 510,150 | BOCILLIN-FL binding, fluorescence emission at 510 nm (excitation 490 nm), raw data ([3]; T0 (ice), separation Oil): 1,163,240 | BOCILLIN-FL bound by the MSSA strain, more than the MRSA strain, per cell basis ([4]; 1.0 ml of 100 μM BOCILLIN-FL mixed with 9.0 ml bacteria, irrespective of the culture time): 2-3 times | Time at which maximal binding was measured ([4]; room temperature (the T0 tube), oil method): 5 min | BOCILLIN-FL bound by the five benzyl-penicillin sensitive strains versus the fifteen benzyl-penicillin resistant strains [5]: over twice the amount
